Measured values from PubChem BioAssay AID1963850 (Molecular Pharmacology Branch, DTP, NCI, 2024).

Tested on: 192522-019-R-J2-PDC complex tumor spheroid viability
Assay: Anticancer human tumor 192522-019-R-J2-PDC patient-derived colon adenocarcinoma cell line growth inhibition [POLQ]
Conditions: for IC50: curve of first compound; for viability, T/C: stronger effect = lower value
In short: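 Complex spheroid viability model combining PDC tumour cells with endothelial (HUVEC) and MSC stromal cells. Novobiocin, ART-558 or RP6685 were tested singly and in combination with standard and investigational anticancer drugs. Each was titrated in half-log steps from near clinical Cmax, or from 10 microM where Cmax was unknown.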

[1] = second compound 0.0316 µM, first compound 0.0316 µM
[2] = second compound 0.0316 µM, first compound 0.1 µM
[3] = second compound 0.0316 µM, first compound 0.316 µM
[4] = second compound 0.0316 µM, first compound 1 µM
[5] = second compound 0.0316 µM, first compound 3.16 µM
[6] = second compound 0.0316 µM, first compound 10 µM
[7] = second compound 0.1 µM, first compound 0.0316 µM
[8] = second compound 0.1 µM, first compound 0.1 µM
[9] = second compound 0.1 µM, first compound 0.316 µM
[10] = second compound 0.1 µM, first compound 1 µM
[11] = second compound 0.1 µM, first compound 3.16 µM
[12] = second compound 0.1 µM, first compound 10 µM
[13] = second compound 0.316 µM, first compound 0.0316 µM
[14] = second compound 0.316 µM, first compound 0.1 µM
[15] = second compound 0.316 µM, first compound 0.316 µM
[16] = second compound 0.316 µM, first compound 1 µM
[17] = second compound 0.316 µM, first compound 3.16 µM
[18] = second compound 0.316 µM, first compound 10 µM
[19] = second compound 1 µM, first compound 0.0316 µM
[20] = second compound 1 µM, first compound 0.1 µM
[21] = second compound 1 µM, first compound 0.316 µM
[22] = second compound 1 µM, first compound 1 µM
[23] = second compound 1 µM, first compound 3.16 µM
[24] = second compound 1 µM, first compound 10 µM
[25] = second compound 3.16 µM, first compound 0.0316 µM
[26] = second compound 3.16 µM, first compound 0.1 µM
[27] = second compound 3.16 µM, first compound 0.316 µM
[28] = second compound 3.16 µM, first compound 1 µM
[29] = second compound 3.16 µM, first compound 3.16 µM
[30] = second compound 3.16 µM, first compound 10 µM
[31] = second compound 10 µM, first compound 0.0316 µM
[32] = second compound 10 µM, first compound 0.1 µM
[33] = second compound 10 µM, first compound 0.316 µM
[34] = second compound 10 µM, first compound 1 µM
[35] = second compound 10 µM, first compound 3.16 µM
[36] = second compound 10 µM, first compound 10 µM
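Also: spheroids exposed to drugs for seven days before reading.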
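For viability, T/C in this document: 100% = DMSO vehicle control viability in luminescence.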

With `CC1COCCN1c1cc(-c2ccnn2C)c2ccnc(-c3ccn[nH]3)c2n1` (stereo not drawn) + Cc1cccc(N(C)C(=O)C2C(O)CCN2c2nc(C)cc(C(F)(F)F)c2C#N)c1 the IC50 (second compound 0.0316 µM) was 359 nM, the IC50 (second compound 0.1 µM) was 287 nM and the IC50 (second compound 0.316 µM) was 397 nM. The IC50 (second compound 1 µM) was 428 nM, the IC50 (second compound 3.16 µM) was 402 nM and the IC50 (second compound 10 µM) was 373 nM. For the same compound, the viability, T/C [1] was 101%, the viability, T/C [2] was 73% and the viability, T/C [3] was 55.6%. It also gave a viability, T/C [4] of 32.6%, a viability, T/C [5] of 43.4% and a viability, T/C [6] of 47.4%. For the same compound, the viability, T/C [7] was 108%, the viability, T/C [8] was 76.8% and the viability, T/C [9] was 49.4%. It also gave a viability, T/C [10] of 32.8%, a viability, T/C [11] of 42.1% and a viability, T/C [12] of 52.4%. For the same compound, the viability, T/C [13] was 100%, the viability, T/C [14] was 77.2% and the viability, T/C [15] was 56.5%. For the same compound, the viability, T/C [16] was 32.5%, the viability, T/C [17] was 37.9% and the viability, T/C [18] was 48.8%. It also gave a viability, T/C [19] of 91.4%, a viability, T/C [20] of 89.2% and a viability, T/C [21] of 53.1%. The viability, T/C [22] was 33%, the viability, T/C [23] was 37.7% and the viability, T/C [24] was 54.1%. It also gave a viability, T/C [25] of 95%, a viability, T/C [26] of 84% and a viability, T/C [27] of 51.7%. For the same compound, the viability, T/C [28] was 36.3%, the viability, T/C [29] was 44% and the viability, T/C [30] was 57.9%. The viability, T/C [31] was 94.9%, the viability, T/C [32] was 83.1% and the viability, T/C [33] was 51.9%. The viability, T/C [34] was 33.8%, the viability, T/C [35] was 44.2% and the viability, T/C [36] was 56.8%.

Compound `CC1COCCN1c1cc(C2(S(C)(=N)=O)CC2)nc(-c2ccnc3[nH]ccc23)n1` (stereo not drawn) + Nc1ccc(C#CCN(C(=O)Cc2ncc(C(F)(F)F)cc2C(F)(F)F)c2ccc(F)cc2)nn1 has an IC50 (second compound 0.0316 µM) of 5870 nM, an IC50 (second compound 0.1 µM) of 6810 nM and an IC50 (second compound 0.316 µM) of 6000 nM. The IC50 (second compound 1 µM) was 7000 nM, the IC50 (second compound 3.16 µM) was 6400 nM and the IC50 (second compound 10 µM) was 7130 nM. It also gave a viability, T/C [1] of 101%, a viability, T/C [2] of 90.6% and a viability, T/C [3] of 102%. For the same compound, the viability, T/C [4] was 93.7%, the viability, T/C [5] was 68% and the viability, T/C [6] was 34.5%. For the same compound, the viability, T/C [7] was 106%, the viability, T/C [8] was 98.6% and the viability, T/C [9] was 102%. It also gave a viability, T/C [10] of 100%, a viability, T/C [11] of 69.6% and a viability, T/C [12] of 40.1%. For the same compound, the viability, T/C [13] was 114%, the viability, T/C [14] was 100% and the viability, T/C [15] was 99.4%. For the same compound, the viability, T/C [16] was 90%, the viability, T/C [17] was 67.9% and the viability, T/C [18] was 35.5%. For the same compound, the viability, T/C [19] was 103%, the viability, T/C [20] was 108% and the viability, T/C [21] was 100%. For the same compound, the viability, T/C [22] was 96%, the viability, T/C [23] was 77% and the viability, T/C [24] was 37.8%. It also gave a viability, T/C [25] of 99.2%, a viability, T/C [26] of 100% and a viability, T/C [27] of 101%. For the same compound, the viability, T/C [28] was 100%, the viability, T/C [29] was 68% and the viability, T/C [30] was 38.5%. The viability, T/C [31] was 102%, the viability, T/C [32] was 101% and the viability, T/C [33] was 102%. For the same compound, the viability, T/C [34] was 105%, the viability, T/C [35] was 72.7% and the viability, T/C [36] was 40.5%.

For `O=C(Nc1ccc(O)c(NS(=O)(=O)c2ccc(F)cc2)c1)c1ccc(-c2ccccc2)cc1` + COC1C(OC(N)=O)C(O)C(Oc2ccc3c(O)c(NC(=O)c4ccc(O)c(CC=C(C)C)c4)c(=O)oc3c2C)OC1(C)C, the IC50 (second compound 0.0316 µM) was over 10000 nM, the IC50 (second compound 0.1 µM) was over 10000 nM and the IC50 (second compound 0.316 µM) was over 10000 nM. For the same compound, the IC50 (second compound 1 µM) was over 10000 nM, the IC50 (second compound 3.16 µM) was over 10000 nM and the IC50 (second compound 10 µM) was over 10000 nM. For the same compound, the viability, T/C [1] was 109%, the viability, T/C [2] was 97.3% and the viability, T/C [3] was 95.8%. It also gave a viability, T/C [4] of 92.1%, a viability, T/C [5] of 93% and a viability, T/C [6] of 101%. It also gave a viability, T/C [7] of 105%, a viability, T/C [8] of 88.9% and a viability, T/C [9] of 97.5%. The viability, T/C [10] was 102%, the viability, T/C [11] was 95.5% and the viability, T/C [12] was 104%. For the same compound, the viability, T/C [13] was 103%, the viability, T/C [14] was 89.6% and the viability, T/C [15] was 98.3%. The viability, T/C [16] was 93.5%, the viability, T/C [17] was 94.7% and the viability, T/C [18] was 96.6%. It also gave a viability, T/C [19] of 95.7%, a viability, T/C [20] of 93.3% and a viability, T/C [21] of 111%. For the same compound, the viability, T/C [22] was 105%, the viability, T/C [23] was 95.5% and the viability, T/C [24] was 94.3%. It also gave a viability, T/C [25] of 104%, a viability, T/C [26] of 103% and a viability, T/C [27] of 95.7%. The viability, T/C [28] was 105%, the viability, T/C [29] was 108% and the viability, T/C [30] was 102%. The viability, T/C [31] was 95.9%, the viability, T/C [32] was 98.2% and the viability, T/C [33] was 120%. The viability, T/C [34] was 97.6%, the viability, T/C [35] was 113% and the viability, T/C [36] was 105%.

`CC1COCCN1c1cc(-c2ccnn2C)c2ccnc(-c3ccn[nH]3)c2n1` (stereo not drawn) + COC1C(OC(N)=O)C(O)C(Oc2ccc3c(O)c(NC(=O)c4ccc(O)c(CC=C(C)C)c4)c(=O)oc3c2C)OC1(C)C was tested, and the IC50 (second compound 0.0316 µM) was 248 nM, the IC50 (second compound 0.1 µM) was 304 nM and the IC50 (second compound 0.316 µM) was 385 nM. For the same compound, the IC50 (second compound 1 µM) was 304 nM, the IC50 (second compound 3.16 µM) was 304 nM and the IC50 (second compound 10 µM) was 294 nM. For the same compound, the viability, T/C [1] was 92.7%, the viability, T/C [2] was 70.6% and the viability, T/C [3] was 45.5%. It also gave a viability, T/C [4] of 34.8%, a viability, T/C [5] of 38.4% and a viability, T/C [6] of 45%. It also gave a viability, T/C [7] of 103%, a viability, T/C [8] of 80.9% and a viability, T/C [9] of 50.3%. The viability, T/C [10] was 35.9%, the viability, T/C [11] was 36.9% and the viability, T/C [12] was 45.9%. For the same compound, the viability, T/C [13] was 93.4%, the viability, T/C [14] was 84.1% and the viability, T/C [15] was 52.8%. For the same compound, the viability, T/C [16] was 35.4%, the viability, T/C [17] was 39.1% and the viability, T/C [18] was 47.6%. It also gave a viability, T/C [19] of 101%, a viability, T/C [20] of 87.6% and a viability, T/C [21] of 49.5%. It also gave a viability, T/C [22] of 33.8%, a viability, T/C [23] of 33.6% and a viability, T/C [24] of 47.2%. It also gave a viability, T/C [25] of 98.6%, a viability, T/C [26] of 86.1% and a viability, T/C [27] of 49.5%. The viability, T/C [28] was 34.6%, the viability, T/C [29] was 43.1% and the viability, T/C [30] was 48.3%. It also gave a viability, T/C [31] of 103%, a viability, T/C [32] of 77.6% and a viability, T/C [33] of 50.2%. It also gave a viability, T/C [34] of 32.3%, a viability, T/C [35] of 44.9% and a viability, T/C [36] of 46.8%.
